What is called boiling point is the temperature at which the vapour pressure of the liquid equals the pressure above it. The melting point is the temperature of the solid-liquid transition.

Details in one data set: not given
Take `C#CC(C)(O)C(C)C` (configuration not stated): the boiling point came out at 134 °C.

In the case of `O=C(c1ccc(O)cc1)c1ccc(O)cc1`, the melting point was found to be 210 °C.

`O=C1C(Cl)C(CCl)CN1c1cccc(C(F)(F)F)c1` (configuration not stated) had a log10 vapour pressure (mmHg) of -5.48 and a melting point of 67.7 °C.

Compound `ClC1CC2CCC1C2` (configuration not stated) yielded a boiling point of 162 °C and a melting point of -5 °C.

For the compound `CC(=O)C(Cl)(Cl)Cl`, the boiling point came to 149 °C.

Turning to `COc1ccc(-c2ccccc2)cc1NNC(=O)OC(C)C`, the melting point came to 122 °C.

In the case of `CCCCN1CCOCC1`, the boiling point was 214 °C and the melting point is -57.1 °C.

In turn, `CC(C)NCC(O)COc1cccc2c1C=CC2` (configuration not stated) returned a melting point of 88.5 °C.

`C=C1C[C@]23C[C@@]1(O)CC[C@H]2[C@@]12C=C[C@H](O)[C@@](C)(C(=O)O1)[C@H]2[C@@H]3C(=O)O` returned a melting point of 234 °C.

For `CCOCCC#N`, the boiling point came out at 154 °C.

`O=C(Cl)c1cc([N+](=O)[O-])cc([N+](=O)[O-])c1` had a melting point of 74 °C.

The compound `COP(=S)(OC)Oc1ccc(Sc2ccc(OP(=S)(OC)OC)cc2)cc1` showed a log10 Koc (L/kg) of 5 and a melting point of 30 °C.

The compound `CCCCCCCCCCCCCCCCCCCCCCCC` showed a boiling point of 391 °C, a log10 biodegradation half-life (days) of 2.06, a log10 vapour pressure (mmHg) of -5.39 and a melting point of 54 °C. In addition, the ready biodegradability entry is “readily biodegradable”.

Take `N#Cc1cccc2ccccc12`: the boiling point is 299 °C and the melting point is 37.5 °C.

`Nc1cccc(Cl)c1` gave a boiling point of 230 °C, a log10 Henry constant (atm·m³/mol) of -6, a log10 vapour pressure (mmHg) of -1.18 and a melting point of -10.4 °C. Also, the ready biodegradability entry is listed as “not readily biodegradable”.

`Cc1n[nH]c(=S)[nH]c1=O` gave a melting point of 218 °C.

With `O=C1NCCN1c1ncc([N+](=O)[O-])s1`, the melting point was 261 °C.

The compound `CC1=C(O)C(=O)[C@@H]2O[C@@H]2C1=O` showed a melting point of 127 °C.

With `CCC=CCC(=O)OCC`, the boiling point was determined as 166 °C.

As for `Cc1cccc(C)c1I`, the boiling point was found to be 230 °C and the melting point came out at 11.2 °C.

On to `N#Cc1ccco1`, for which the boiling point was 147 °C.

Regarding `COc1ccc(Nc2ccc(N)cc2)cc1`, the melting point came out at 102 °C.

As to `C=CC(C)=CC`, the boiling point is 77 °C.

On to `CC(C)=CC(C)C`, for which the boiling point came to 83.4 °C and the melting point was -128 °C.

`FC=C(F)Br` registered a boiling point of 19 °C.

Compound `Cc1ccc(C=O)c(O)c1` showed a boiling point of 223 °C and a melting point of 60.5 °C.

Regarding `C=CCOC(=O)/C=C\C(=O)OCC=C`, the log10 vapour pressure (mmHg) was -2.17.

`CSc1ncnc2c1ncn2[C@@H]1O[C@H](CO)[C@@H](O)[C@H]1O` showed a melting point of 164 °C.

`C#C[C@]1(O)CC[C@H]2[C@@H]3CCC4=CC(=O)CC[C@@H]4[C@H]3CC[C@@]21C` showed a melting point of 204 °C.

Consider `ClC(Cl)Br`, for which the boiling point is 90 °C, the log10 Henry constant (atm·m³/mol) was -2.67, the log10 Koc (L/kg) came to 1.78 and the melting point is -57 °C. Moreover, the ready biodegradability entry is on record as “readily biodegradable”.

`COc1cccc(C)c1OC` displayed a boiling point of 204 °C.

Compound `CC(=O)Oc1cc(C)ccc1C(C)C` came in with a boiling point of 245 °C.

For `Cc1cccc(CC#N)c1`, the boiling point came to 248 °C.

In turn, `CCCCCCOC(=O)CCC` yielded a boiling point of 208 °C and a melting point of -78 °C.

`CCOC(=O)c1ccc2c(c1)OCO2` returned a boiling point of 286 °C and a melting point of 18.5 °C.

In the case of `CN(C)CCc1c[nH]c2cccc(O)c12`, the melting point came to 174 °C.

`O=C=Nc1ccc(Cl)cc1` yielded a boiling point of 204 °C, a log10 vapour pressure (mmHg) of -0.712 and a melting point of 30 °C.

`CCN(C)c1ccccc1` had a boiling point of 204 °C.

Consider `CC(Cl)CBr` (configuration not stated), for which the boiling point amounted to 118 °C.

`c1ccc2nn(C3CCCCC3)nc2c1` displayed a melting point of 46.5 °C.

`CSCc1ccccc1` yielded a boiling point of 210 °C and a melting point of -30 °C.

In the case of `CC(=O)O[C@]1(C(C)=O)CC[C@H]2[C@@H]3C=C(Cl)C4=CC(=O)CC[C@]4(C)[C@H]3CC[C@@]21C`, the melting point was 213 °C.

The compound `O=C1c2ccccc2-c2c(O)cccc21` showed a melting point of 250 °C.

In the case of `CCCCOC(=O)Nc1ccccc1`, the log10 Koc (L/kg) came to 2.26.

Take `O=S(=O)(Cc1ccccc1)c1ccccc1`: the melting point was determined as 146 °C.

`FCF`: the boiling point is -51.6 °C, the log10 vapour pressure (mmHg) stood at 4.1 and the melting point was -136 °C.

`Cc1c(NC(=O)C(C)N(C)C)c(=O)n(-c2ccccc2)n1C` (configuration not stated) came in with a melting point of 181 °C.

Compound `Nc1c(Br)cc([N+](=O)[O-])cc1Br` returned a melting point of 207 °C.

Turning to `Fc1ccc(C(c2ccc(F)cc2)C(Cl)(Cl)Cl)cc1`, the melting point was determined as 44.5 °C.

On to `CCc1ccc(Br)cc1`, for which the boiling point is 204 °C, the log10 vapour pressure (mmHg) is -0.155 and the melting point was -43.5 °C.

`O=C1CCCCCCCCCCCN1`: the melting point turned out to be 152 °C and the ready biodegradability result is recorded as “not readily biodegradable”.

`CCN(C(=O)Oc1cccc(NC(=O)OC(C)C)c1)c1ccccc1` gave a melting point of 110 °C.

With `C[C@@H]1Cc2c(Cl)cc(C(=O)N[C@@H](Cc3ccccc3)C(=O)O)c(O)c2C(=O)O1`, the melting point was found to be 169 °C.

`CCOC(=O)C(C#N)(CC)CC` showed a boiling point of 214 °C.

With `Clc1cccnc1Cl`, the melting point came to 66 °C.

On to `Nc1ccc(Nc2ccc([N+](=O)[O-])cc2[N+](=O)[O-])cc1`, for which the log10 vapour pressure (mmHg) is -10.2 and the melting point turned out to be 188 °C.

`Nc1cccc2cc(O)ccc12` gave a melting point of 191 °C.

As for `COC(=O)Nc1nc2cc(C(=O)c3ccccc3)ccc2[nH]1`, the melting point was 288 °C.

The compound `O=C(O)C1=CC(=C(c2ccc(O)c(C(=O)O)c2)c2ccc(O)c(C(=O)O)c2)C=CC1=O` gave a melting point of 300 °C.

Regarding `Cc1cc(=O)nc(C(C)C)[nH]1`, the melting point stood at 173 °C and the ready biodegradability entry was “not readily biodegradable”.

Compound `C[C@]12CC[C@H](O)CC1=CC[C@@H]1[C@@H]2CC[C@@]2(C)[C@H]1CC[C@]2(C)O` registered a melting point of 206 °C.

Regarding `CCCCCCCCc1ccc(N)cc1`, the boiling point was 310 °C, the melting point stood at 20 °C and the ready biodegradability entry is reported as “readily biodegradable”.

In the case of `CCCCCCCCCCCCCC(=O)OC(=O)CCCCCCCCCCCCC`, the melting point worked out at 53.4 °C.

In the case of `O=C(O)C1CCCC1`, the boiling point was 212 °C and the melting point was -7 °C.

`CCCS(=O)(=O)CCC` had a boiling point of 270 °C, a log10 vapour pressure (mmHg) of -2.39 and a melting point of 29.5 °C.

Consider `FC(F)(Cl)C(Cl)(Cl)C(F)(F)Cl`, for which the boiling point was 112 °C and the melting point was -42.9 °C.

`CCCO[Si](OCCC)(OCCC)OCCC` displayed a boiling point of 226 °C.

Turning to `COC(=O)CC[N+](=O)[O-]`, the ready biodegradability result was “readily biodegradable”.

For the compound `Cc1nnc(NS(=O)(=O)c2ccc(N)cc2)s1`, the melting point worked out at 208 °C.

`CC(O)c1ccccc1` (configuration not stated): the boiling point is 205 °C, the log10 Koc (L/kg) came to 1.5, the melting point amounted to 15 °C and the ready biodegradability entry is listed as “readily biodegradable”.

Turning to `CCCC(C)(C)C`, the boiling point is 79.2 °C, the log10 biodegradation half-life (days) stood at 0.845, the log10 vapour pressure (mmHg) is 2.02 and the melting point is -124 °C.

The compound `CCCc1ccc(OC)cc1` showed a boiling point of 212 °C.

The same data set, now with this note: fish.
As for `Clc1ccc(Oc2c(Cl)cc(Cl)c(Cl)c2Cl)c(Cl)c1`, the log10 biotransformation half-life (days) stood at 2.76.

Take `Nc1cccc(Cl)c1`: the log10 BCF worked out at 0.35 and the log10 biotransformation half-life (days) is -0.71.

For `Brc1ccc(Oc2c(Br)cccc2Br)c(Br)c1`, the log10 BCF is 5.88.

Compound `O=C1CCCCCCCCCCCN1` showed a log10 BCF of 0.41.

`Cc1cc(=O)nc(C(C)C)[nH]1` yielded a log10 BCF of 0.26.

The values above are taken from the OPERA property sets (Mansouri et al. 2018).
